Active and inactive are the calls of the source. The rule behind the calls is not given here.
System: rodent lifetime carcinogenesis bioassay, tumor incidence TD50
Assay: carcinogenic potency in animals, long-term in vivo studies, CPDB compilation (AID 1745844)
[1] = mouse, strain B6C3F1, females, in feed, site: any site (literature study), lesion: several types, types named in the paper, dosed 103 weeks, study length 104 weeks
[2] = mouse, strain B6C3F1, females, in feed, site: lung, lesion: alveolar/bronchiolar adenoma + alveolar/bronchiolar carcinoma, dosed 103 weeks, study length 104 weeks
[3] = rat, strain Fischer 344, females, in feed, site: any site (literature study), lesion: several types, types named in the paper, dosed 103 weeks, study length 104 weeks
[4] = rat, strain Fischer 344, males, in feed, site: liver, lesion: hepatocellular adenoma + hepatocellular carcinoma + neoplastic nodule, dosed 103 weeks, study length 104 weeks

Work on `COC(=O)[C@H]1[C@H]2C[C@@H]3c4[nH]c5cc(OC)ccc5c4CCN3C[C@H]2C[C@@H](OC(=O)c2cc(OC)c(OC)c(OC)c2)[C@@H]1OC` yielded a TD50 [1] of 6.42 mg/kg/day, a TD50 [2] of 54.5 mg/kg/day and a TD50 (mouse, strain B6C3F1, females, in feed, site: mammary gland, lesion: all tumors, dosed 103 weeks, study length 104 weeks) of 3.58 mg/kg/day. For the same compound, the TD50 (mouse, strain B6C3F1, males, in feed, site: liver, lesion: hepatocellular adenoma + hepatocellular carcinoma + neoplastic nodule, dosed 103 weeks, study length 104 weeks) was 5.46 mg/kg/day, the TD50 (mouse, strain B6C3F1, males, in feed, site: seminal vesicle, lesion: undifferentiated carcinoma, dosed 103 weeks, study length 104 weeks) was 8.39 mg/kg/day and the TD50 (mouse, strain C3H (MTV+), females, in feed, site: mammary gland, lesion: adenocarcinoma, dosed 104 weeks, study length 104 weeks) was 0.0342 mg/kg/day. The TD50 [3] was 0.727 mg/kg/day (inactive), the TD50 (rat, strain Fischer 344, males, in feed, site: adrenal gland, lesion: pheochromocytoma + pheochromocytoma, malignant, dosed 103 weeks, study length 104 weeks) was 0.306 mg/kg/day and the TD50 [4] was 6.77 mg/kg/day. The carcinogen call (rat, strain Wistar, females, in feed, site: mammary gland, lesion: fibroadenoma, dosed 75 weeks, study length 75 weeks) was “negative (inactive)”, the carcinogen call (rat, strain Wistar, females, in feed, site: pituitary gland, lesion: several types, types named in the paper, dosed 75 weeks, study length 75 weeks) was “negative (inactive)” and the TD50 (rat, strain Wistar, males, in feed, site: pituitary gland, lesion: adenoma, dosed 75 weeks, study length 75 weeks) was 38.3 mg/kg/day (inactive).

For `CCCl`, the TD50 (mouse, strain B6C3F1, females, inhaled, site: all sites, lesion: malignant lymphoma, histiocytic type + malignant lymphoma, mixed type + malignant lymphoma, lymphocytic type + malignant lymph, dosed 100 weeks, study length 100 weeks) was 9960 mg/kg/day, the TD50 (mouse, strain B6C3F1, females, inhaled, site: any site (literature study), lesion: several types, types named in the paper, dosed 100 weeks, study length 100 weeks) was 1380 mg/kg/day and the TD50 (mouse, strain B6C3F1, females, inhaled, site: liver, lesion: hepatocellular adenoma + hepatocellular carcinoma + neoplastic nodule, dosed 100 weeks, study length 100 weeks) was 7220 mg/kg/day. For the same compound, the TD50 (mouse, strain B6C3F1, females, inhaled, site: liver, lesion: hepatocellular adenoma + hepatocellular carcinoma, dosed 100 weeks, study length 100 weeks) was 7220 mg/kg/day, the TD50 (mouse, strain B6C3F1, females, inhaled, site: liver, lesion: hepatocellular carcinoma, dosed 100 weeks, study length 100 weeks) was 7580 mg/kg/day and the TD50 (mouse, strain B6C3F1, females, inhaled, site: lung, lesion: alveolar/bronchiolar adenoma + alveolar/bronchiolar carcinoma, dosed 100 weeks, study length 100 weeks) was 8640 mg/kg/day. The TD50 (mouse, strain B6C3F1, females, inhaled, site: uterus, lesion: carcinoma, dosed 100 weeks, study length 100 weeks) was 1810 mg/kg/day, the TD50 (mouse, strain B6C3F1, males, inhaled, site: any site (literature study), lesion: several types, types named in the paper, dosed 100 weeks, study length 100 weeks) was 10100 mg/kg/day and the TD50 (mouse, strain B6C3F1, males, inhaled, site: liver, lesion: hepatocellular adenoma + hepatocellular carcinoma + neoplastic nodule, dosed 100 weeks, study length 100 weeks) was 34100 mg/kg/day. It also gave a TD50 (mouse, strain B6C3F1, males, inhaled, site: lung, lesion: alveolar/bronchiolar adenoma + alveolar/bronchiolar carcinoma, dosed 100 weeks, study length 100 weeks) of 9910 mg/kg/day, a TD50 (mouse, strain B6C3F1, males, inhaled, site: lung, lesion: alveolar/bronchiolar adenoma, dosed 100 weeks, study length 100 weeks) of 12700 mg/kg/day and a TD50 (rat, strain Fischer 344, females, inhaled, site: any site (literature study), lesion: several types, types named in the paper, dosed 102 weeks, study length 105 weeks) of 2660 mg/kg/day. The TD50 (rat, strain Fischer 344, females, inhaled, site: brain, lesion: astrocytoma, malignant, dosed 102 weeks, study length 105 weeks) was 21000 mg/kg/day, the TD50 (rat, strain Fischer 344, females, inhaled, site: uterus, lesion: endometrial stromal polyp, dosed 102 weeks, study length 105 weeks) was 10200 mg/kg/day and the TD50 (rat, strain Fischer 344, males, inhaled, site: any site (literature study), lesion: several types, types named in the paper, dosed 102 weeks, study length 105 weeks) was 1600 mg/kg/day. For the same compound, the TD50 (rat, strain Fischer 344, males, inhaled, site: liver, lesion: hepatocellular adenoma + hepatocellular carcinoma + neoplastic nodule, dosed 102 weeks, study length 105 weeks) was 47700 mg/kg/day, the TD50 (rat, strain Fischer 344, males, inhaled, site: skin, lesion: basal-cell carcinoma + sebaceous adenoma + trichoepithelioma, dosed 102 weeks, study length 105 weeks) was 3210 mg/kg/day and the TD50 (rat, strain Fischer 344, males, inhaled, site: skin, lesion: basal-cell carcinoma, dosed 102 weeks, study length 105 weeks) was 4970 mg/kg/day.

`CC(N)=S` gave a TD50 (mouse, strain ICR, males, in feed, site: liver, lesion: hepatocellular carcinoma, dosed 40 weeks, study length 88 weeks) of 15.3 mg/kg/day, a TD50 (mouse, strain ICR, males, in feed, site: liver, lesion: hyperplastic nodule, dosed 40 weeks, study length 88 weeks) of 12 mg/kg/day and a TD50 (mouse, strain Swiss, females, in feed, site: liver, lesion: hepatoma, dosed 65 weeks, study length 65 weeks) of 5.36 mg/kg/day. For the same compound, the carcinogen call (mouse, strain Swiss, males, in feed, site: liver, lesion: hepatoma, dosed 65 weeks, study length 65 weeks) was “positive”, the TD50 (rat, strain Donryu, males, in feed, site: liver, lesion: hepatocellular carcinoma, trabecular, dosed 40 weeks, study length 80 weeks) was 21.8 mg/kg/day and the TD50 (rat, strain Donryu, males, in feed, site: liver, lesion: papillary adenocarcinoma, dosed 40 weeks, study length 80 weeks) was 27.6 mg/kg/day. It also gave a TD50 (rat, strain Donryu, males, in feed, site: liver, lesion: several types, types named in the paper, dosed 40 weeks, study length 80 weeks) of 11.5 mg/kg/day.

In the case of `O=S(=O)(O)c1ccc(N=Nc2c(O)ccc3cc(S(=O)(=O)O)ccc23)cc1`, the carcinogen call [1] is reported as “negative (inactive)”, the TD50 [2] is reported as 66400 mg/kg/day and the TD50 (mouse, strain B6C3F1, males, in feed, site: any site (literature study), lesion: several types, types named in the paper, dosed 103 weeks, study length 103 weeks) is reported as 17800 mg/kg/day. For the same compound, the TD50 (mouse, strain B6C3F1, males, in feed, site: liver, lesion: hepatocellular adenoma + hepatocellular carcinoma + neoplastic nodule, dosed 103 weeks, study length 103 weeks) was 14200 mg/kg/day, the TD50 (mouse, strain B6C3F1, males, in feed, site: skin, lesion: fibrosarcoma + fibroma, dosed 103 weeks, study length 103 weeks) was 37500 mg/kg/day (inactive) and the carcinogen call (mouse, strain Charles River CD (Sprague-Dawley), females, in feed, site: liver, lesion: one or several types, types not named, dosed 80 weeks, study length 80 weeks) was “negative (inactive)”. The carcinogen call (mouse, strain Charles River CD (Sprague-Dawley), females, in feed, site: lung, lesion: adenoma, dosed 80 weeks, study length 80 weeks) was “negative (inactive)”, the carcinogen call (mouse, strain Charles River CD (Sprague-Dawley), males, in feed, site: liver, lesion: one or several types, types not named, dosed 80 weeks, study length 80 weeks) was “negative (inactive)” and the carcinogen call (mouse, strain Charles River CD (Sprague-Dawley), males, in feed, site: lung, lesion: adenoma, dosed 80 weeks, study length 80 weeks) was “negative (inactive)”. For the same compound, the TD50 [3] was 9060 mg/kg/day (inactive), the TD50 (rat, strain Fischer 344, males, in feed, site: any site (literature study), lesion: several types, types named in the paper, dosed 103 weeks, study length 104 weeks) was 11800 mg/kg/day (inactive) and the TD50 [4] was 2520 mg/kg/day. For the same compound, the TD50 (rat, strain Not specified, females, in feed, site: any site (literature study), lesion: several types, types named in the paper, dosed 64 weeks, study length 64 weeks) was 87.4 mg/kg/day (inactive), the carcinogen call (rat, strain Not specified, females, in feed, site: liver, lesion: one or several types, types not named, dosed 64 weeks, study length 64 weeks) was “negative (inactive)” and the TD50 (rat, strain Not specified, males, in feed, site: any site (literature study), lesion: several types, types named in the paper, dosed 64 weeks, study length 64 weeks) was 14000 mg/kg/day (inactive). For the same compound, the carcinogen call (rat, strain Not specified, males, in feed, site: liver, lesion: one or several types, types not named, dosed 64 weeks, study length 64 weeks) was “negative (inactive)”.

In the case of `OC[C@H]1O[C@@H]2O[C@H]3[C@H](O)[C@@H](O)[C@@H](O[C@H]4[C@H](O)[C@@H](O)[C@@H](O[C@H]5[C@H](O)[C@@H](O)[C@@H](O[C@H]6[C@H](O)[C@@H](O)[C@@H](O[C@H]7[C@H](O)[C@@H](O)[C@@H](O[C@H]8[C@H](O)[C@@H](O)[C@@H](O[C@H]1[C@H](O)[C@H]2O)O[C@@H]8CO)O[C@@H]7CO)O[C@@H]6CO)O[C@@H]5CO)O[C@@H]4CO)O[C@@H]3CO`, the carcinogen call (mouse, strain Charles River CD1, females, in feed, site: lung, lesion: several types, types named in the paper, dosed 104 weeks, study length 104 weeks) is reported as “negative (inactive)”, the TD50 (mouse, strain Charles River CD1, males, in feed, site: lung, lesion: several types, types named in the paper, dosed 93 weeks, study length 93 weeks) is reported as 728 mg/kg/day (inactive) and the carcinogen call (rat, strain Charles River CD (Sprague-Dawley), females, in feed, site: liver, lesion: one or several types, types not named, dosed 52 weeks, study length 52 weeks) is reported as “negative (inactive)”. For the same compound, the carcinogen call (rat, strain Charles River CD (Sprague-Dawley), males, in feed, site: liver, lesion: one or several types, types not named, dosed 52 weeks, study length 52 weeks) was “negative (inactive)”, the TD50 (rat, strain F344/DuCrj, females, in feed, site: any site (literature study), lesion: several types, types named in the paper, dosed 104 weeks, study length 109 weeks) was 85900 mg/kg/day (inactive) and the carcinogen call (rat, strain F344/DuCrj, females, in feed, site: liver, lesion: hepatocellular adenoma, dosed 104 weeks, study length 109 weeks) was “negative (inactive)”. The carcinogen call (rat, strain F344/DuCrj, males, in feed, site: any site (literature study), lesion: several types, types named in the paper, dosed 104 weeks, study length 109 weeks) was “negative (inactive)”, the carcinogen call (rat, strain F344/DuCrj, males, in feed, site: liver, lesion: hepatocellular adenoma, dosed 104 weeks, study length 109 weeks) was “negative (inactive)” and the TD50 (rat, strain Fischer 344, females, in feed, site: uterus, lesion: adenocarcinoma, dosed 129 weeks, study length 129 weeks) was 22700 mg/kg/day (inactive). For the same compound, the TD50 (rat, strain Fischer 344, males, in feed, site: testis, lesion: interstitial-cell tumor, dosed 122 weeks, study length 122 weeks) was 157 mg/kg/day (inactive).

For `C=CCOc1ccccc1OCC(O)CNC(C)C` (stereo not given), the TD50 (mouse, strain CF-1, females, in feed, site: liver, lesion: carcinoma, dosed 78 weeks, study length 91 weeks) was 2400 mg/kg/day (inactive), the carcinogen call (mouse, strain CF-1, females, in feed, site: liver, lesion: one or several types, types not named, dosed 78 weeks, study length 78 weeks) was “negative (inactive)” and the carcinogen call (mouse, strain CF-1, females, in feed, site: lung, lesion: adenoma, dosed 78 weeks, study length 91 weeks) was “negative (inactive)”. For the same compound, the TD50 (mouse, strain CF-1, females, in feed, site: lung, lesion: carcinoma, dosed 78 weeks, study length 78 weeks) was 425 mg/kg/day (inactive), the carcinogen call (mouse, strain CF-1, females, in feed, site: lung, lesion: neurofibrosarcoma, dosed 78 weeks, study length 91 weeks) was “negative (inactive)” and the TD50 (mouse, strain CF-1, males, in feed, site: liver, lesion: carcinoma, dosed 78 weeks, study length 78 weeks) was 2620 mg/kg/day (inactive). The TD50 (mouse, strain CF-1, males, in feed, site: liver, lesion: parenchymal adenoma, dosed 78 weeks, study length 91 weeks) was 2120 mg/kg/day (inactive), the carcinogen call (mouse, strain CF-1, males, in feed, site: lung, lesion: adenoma, dosed 78 weeks, study length 78 weeks) was “negative (inactive)” and the carcinogen call (mouse, strain CF-1, males, in feed, site: lung, lesion: adenoma, dosed 78 weeks, study length 91 weeks) was “negative (inactive)”. For the same compound, the carcinogen call (mouse, strain CF-1, males, in feed, site: lung, lesion: carcinoma, dosed 78 weeks, study length 78 weeks) was “negative (inactive)”, the carcinogen call (rat, strain Charles River CD (Sprague-Dawley), females, in feed, site: liver, lesion: one or several types, types not named, dosed 78 weeks, study length 78 weeks) was “negative (inactive)” and the TD50 (rat, strain Charles River CD (Sprague-Dawley), males, in feed, site: liver, lesion: hepatocellular adenoma, dosed 78 weeks, study length 78 weeks) was 1680 mg/kg/day (inactive).
